From PubChem BioAssay AID1919001 (Molecular Pharmacology Branch, DTP, NCI, 2023)
Several values for one entry are separate records, joined by “and”; a condition that tells them apart may be missing. Equal entries are not always repeated.

Tested on: 699152-130-R-J1-PDC complex spheroid growth
Experiment: Anticancer human tumor 699152-130-R-J1-PDC patient-derived pancreatic carcinoma cell line growth inhibition [AhR]
Details: for viability, T/C: stronger effect = lower value
How it was run: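 Agents were dosed in half-log steps down from roughly clinical Cmax, or from 10 microM where Cmax was unknown, alone and with AhR antagonists. Read-out: percent test/control growth of tumor spheroids containing HUVEC and MSC stromal cells.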

[1] = curve of first compound, second compound 0.1 µM
[2] = curve of first compound, second compound 0.316 µM
[3] = curve of first compound, second compound 1 µM
[4] = curve of first compound, second compound 3.16 µM
[5] = curve of first compound, second compound 10 µM
[6] = second compound 0.1 µM, first compound 0.0316 µM
[7] = second compound 0.1 µM, first compound 0.1 µM
[8] = second compound 0.1 µM, first compound 0.316 µM
[9] = second compound 0.1 µM, first compound 1 µM
[10] = second compound 0.316 µM, first compound 0.0316 µM
[11] = second compound 0.316 µM, first compound 0.1 µM
[12] = second compound 0.316 µM, first compound 0.316 µM
[13] = second compound 0.316 µM, first compound 1 µM
[14] = second compound 1 µM, first compound 0.0316 µM
[15] = second compound 1 µM, first compound 0.1 µM
[16] = second compound 1 µM, first compound 0.316 µM
[17] = second compound 1 µM, first compound 1 µM
[18] = second compound 3.16 µM, first compound 0.0316 µM
[19] = second compound 3.16 µM, first compound 0.1 µM
[20] = second compound 3.16 µM, first compound 0.316 µM
[21] = second compound 3.16 µM, first compound 1 µM
[22] = second compound 10 µM, first compound 0.0316 µM
[23] = second compound 10 µM, first compound 0.1 µM
[24] = second compound 10 µM, first compound 0.316 µM
[25] = second compound 10 µM, first compound 1 µM
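Note: compound exposure lasted 7 days after spheroids had grown for 3 days.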

IC50 [1] [µM] | IC50 [2] [µM] | IC50 [3] [µM] | IC50 [4] [µM] | IC50 [5] [µM] | Compound | viability, T/C [6] [%] | viability, T/C [7] [%] | viability, T/C [8] [%] | viability, T/C [9] [%] | viability, T/C [10] [%] | viability, T/C [11] [%] | viability, T/C [12] [%] | viability, T/C [13] [%] | viability, T/C [14] [%] | viability, T/C [15] [%] | viability, T/C [16] [%] | viability, T/C [17] [%] | viability, T/C [18] [%] | viability, T/C [19] [%] | viability, T/C [20] [%] | also measured
> 1 | > 1 | > 1 | 0.489 | < 0.00316 | CC1COCCN1c1cc(-c2ccnn2C)c2ccnc(-c3ccn[nH]3)c2n1 (configuration not stated) + Cc1cncc(-c2nc(NCCc3c[nH]c4ccccc34)c3ncn(C(C)C)c3n2)c1 | 107 | 96.5 | 75.7 | 64.4 | 103 | 88.3 | 81.6 | 62 | 135 | 105 | 79.9 | 64.9 | 67.2 | 57.4 | 52.5 | viability, T/C (second compound 0.1 µM, first compound 0.00316 µM): 109%; viability, T/C (second compound 0.1 µM, first compound 0.01 µM): 94.4%; viability, T/C (second compound 0.316 µM, first compound 0.00316 µM): 119%; viability, T/C (second compound 0.316 µM, first compound 0.01 µM): 122%; viability, T/C (second compound 1 µM, first compound 0.00316 µM): 127%; viability, T/C (second compound 1 µM, first compound 0.01 µM): 128%; viability, T/C (second compound 3.16 µM, first compound 0.00316 µM): 77.6%; viability, T/C (second compound 3.16 µM, first compound 0.01 µM): 64.1%; viability, T/C [21]: 46%; viability, T/C (second compound 10 µM, first compound 0.00316 µM): 5.06%; viability, T/C (second compound 10 µM, first compound 0.01 µM): 5.37%; viability, T/C [22]: 5.23%; viability, T/C [23]: 5.76%; viability, T/C [24]: 7.12%; viability, T/C [25]: 9.33%
8.23 | 6.81 | 7.78 | 7.59 | 6.07 | Nc1ccccc1NC(=O)c1ccc(CNC(=O)OCc2cccnc2)cc1 + CC(CO)NC(=O)c1cc(-c2ccc(Cl)cc2)nn(-c2cnn(C)c2)c1=O | 98.3 | 99.1 | 99.3 | 99.2 | 97.3 | 110 | 107 | 91.3 | 97.7 | 91.4 | 98.4 | 92.9 | 90.2 | 84.7 | 97.2 | viability, T/C (second compound 0.1 µM, first compound 3.16 µM): 72.6%; viability, T/C (second compound 0.1 µM, first compound 10 µM): 45.4%; viability, T/C (second compound 0.316 µM, first compound 3.16 µM): 78%; viability, T/C (second compound 0.316 µM, first compound 10 µM): 36.5%; viability, T/C (second compound 1 µM, first compound 3.16 µM): 71%; viability, T/C (second compound 1 µM, first compound 10 µM): 44.1%; viability, T/C [21]: 82.2%; viability, T/C (second compound 3.16 µM, first compound 3.16 µM): 74.1%; viability, T/C (second compound 3.16 µM, first compound 10 µM): 42.4%; viability, T/C [22]: 96%; viability, T/C [23]: 88%; viability, T/C [24]: 86.1%; viability, T/C [25]: 83.7%; viability, T/C (second compound 10 µM, first compound 3.16 µM): 70.8%; viability, T/C (second compound 10 µM, first compound 10 µM): 34.4%
– | – | – | – | – | CC[C@@]1(O)C(=O)OCc2c1cc1n(c2=O)Cc2cc3c(CN(C)C)c(O)ccc3nc2-1 | – | – | – | – | – | – | – | – | – | – | – | – | – | – | – | viability, T/C (compound 0.000316 µM): 103% and 108% and 86.6%; viability, T/C (compound 0.001 µM): 91.2% and 96.4% and 99%; viability, T/C (compound 0.00316 µM): 104% and 102% and 90%; viability, T/C (compound 0.01 µM): 103% (2×) and 83.5%; viability, T/C (compound 0.0316 µM): 90.8% and 91.3% and 70%; viability, T/C (compound 0.1 µM): 62.8% and 70.9% and 53.5%; IC50 (curve of compound): > 0.1 µM
